The values below come from paper PMC10489644, “In Vitro Evaluation of the Potential for Drug Interactions by Salidroside” (Nutrients, 2023).

For orientation: IC50 means the point on the concentration scale where inhibition reaches its midpoint. Broadly, the fraction unbound is the share of the substance not bound to proteins or other matrix. The low end stands for little free substance, the high end for much free substance. As a reminder, the inhibition is how much of the control response was suppressed.

Structures are written as SMILES. “Also recorded” adds a separate entry of the source. Some results are limits rather than exact numbers.

For one data set, the system named is CYP3A4/5. The conditions noted are these: microsomes.
A further data set deals with CYP2D6 (Homo sapiens, UniProt P10635). The data set can be described thus: Time-dependent inhibition (IC50 shift) in human liver microsomes. For orientation: Microsomes from liver hold many membrane-bound enzymes, among them those of drug oxidation.
Chain of CYP2D6 (P10635 whole entry): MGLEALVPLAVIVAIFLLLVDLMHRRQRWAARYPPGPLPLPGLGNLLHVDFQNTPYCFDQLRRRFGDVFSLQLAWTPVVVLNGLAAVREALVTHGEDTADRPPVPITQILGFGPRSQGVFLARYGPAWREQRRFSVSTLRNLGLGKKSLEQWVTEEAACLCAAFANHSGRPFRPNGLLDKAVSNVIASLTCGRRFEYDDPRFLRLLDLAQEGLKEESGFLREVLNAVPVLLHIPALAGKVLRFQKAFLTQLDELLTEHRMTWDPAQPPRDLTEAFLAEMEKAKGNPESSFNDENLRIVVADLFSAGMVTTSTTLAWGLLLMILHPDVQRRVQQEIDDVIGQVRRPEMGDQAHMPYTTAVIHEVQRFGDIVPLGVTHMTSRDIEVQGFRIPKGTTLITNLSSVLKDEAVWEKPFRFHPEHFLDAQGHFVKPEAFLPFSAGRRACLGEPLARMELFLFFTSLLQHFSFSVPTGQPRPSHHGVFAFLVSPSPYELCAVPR
The next data set in a line: in vitro. The conditions noted are these: Sprague-Dawley (SD), rat, plasma, pH 7.4.
On the set-up of data set [1]: method as in PMID 35684130. The conditions noted are these: multiple oral dose rat study; cited from earlier work.
The target in the next data set is T1, OATP1B1 (Homo sapiens, UniProt Q9Y6L6).
T1 sequence (Q9Y6L6 1-691): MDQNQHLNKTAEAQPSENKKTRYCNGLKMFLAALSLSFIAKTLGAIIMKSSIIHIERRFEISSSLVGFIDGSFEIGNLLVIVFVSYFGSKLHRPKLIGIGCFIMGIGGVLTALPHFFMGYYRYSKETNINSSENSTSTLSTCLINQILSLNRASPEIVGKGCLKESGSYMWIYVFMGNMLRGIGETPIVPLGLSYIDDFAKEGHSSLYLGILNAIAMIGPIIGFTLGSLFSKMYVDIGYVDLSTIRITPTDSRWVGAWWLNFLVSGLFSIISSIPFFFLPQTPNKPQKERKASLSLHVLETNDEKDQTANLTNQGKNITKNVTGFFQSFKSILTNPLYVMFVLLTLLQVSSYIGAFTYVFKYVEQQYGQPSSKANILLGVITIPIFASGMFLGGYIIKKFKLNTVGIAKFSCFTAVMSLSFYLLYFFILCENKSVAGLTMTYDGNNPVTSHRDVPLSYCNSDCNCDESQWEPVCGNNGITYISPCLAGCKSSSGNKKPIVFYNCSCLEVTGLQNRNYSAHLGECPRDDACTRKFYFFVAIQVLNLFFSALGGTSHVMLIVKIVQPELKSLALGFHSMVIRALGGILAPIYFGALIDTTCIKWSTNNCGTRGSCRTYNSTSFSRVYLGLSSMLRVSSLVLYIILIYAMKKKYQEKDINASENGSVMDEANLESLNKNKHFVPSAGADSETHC
The data set can be described thus: Uptake transport inhibition in HEK293-OATP1B1 cells. Here is the method: HEK293-OATP1B1 and OATP1B3 cells were diluted to 1 × 10^6 cells/mL with DMEM supplemented with 1% non-essential amino acid (NEAA), 10% fetal bovine serum (FBS), 1% PS solution (100 U/mL penicillin-G and 100 μg/mL streptomycin), and seeded on a 96-well BioCoat™ poly-d-lysine plate at a density of 1 × 10^6 cells/mL. […] Once the cells were anchored on the plate, the cell culture was replaced with DMEM containing 10% FBS and 1% PS solution (100 U/mL penicillin-G and 100 μg/mL streptomycin solution) and cultured one day for the uptake and inhibition studies. The cell culture medium was removed from the 96-well plate, then rinsed twice with 0.1 mL/well of pre-warmed transport buffer. The transporter cells containing pre-incubation solution were pre-incubated at 37 °C for 30 min. Then the pre-incubation solution was removed and replaced with 0.1 mL/well of dosing solution containing a substrate, respectively (blank transporter buffer containing a substrate, transport buffer containing a substrate and PC, and transport buffer containing a substrate and salidroside). Then, the transporter cells were incubated at 37 °C for 2 min. After incubation, all solutions in the cells were discarded and rinsed with 0.10 mL/well of ice-cold transport buffer (4 °C) three times. […] All samples were shaken and centrifuged at 4000 rpm at 4 °C for 15 min and the supernatant was removed for future analysis by LC-MS/MS.
(§1) Enzyme activity (%) = PAR with compound/PAR vehicle × 100.
Estradiol-17β-glucuronide (substrate) was incubated with an OATP1B1-transfected HEK293 cell monolayer in the presence or absence of salidroside at concentrations up to 100 µM.

The subject of another data set is MAO-A. Set-up: method as in PMID 19168123. The conditions noted are these: isolated compound at 10 µM; cited from earlier work.
Another data set addresses T2, recombinant human MAO-A (Homo sapiens, UniProt P21397).
T2 sequence (P21397 1-527): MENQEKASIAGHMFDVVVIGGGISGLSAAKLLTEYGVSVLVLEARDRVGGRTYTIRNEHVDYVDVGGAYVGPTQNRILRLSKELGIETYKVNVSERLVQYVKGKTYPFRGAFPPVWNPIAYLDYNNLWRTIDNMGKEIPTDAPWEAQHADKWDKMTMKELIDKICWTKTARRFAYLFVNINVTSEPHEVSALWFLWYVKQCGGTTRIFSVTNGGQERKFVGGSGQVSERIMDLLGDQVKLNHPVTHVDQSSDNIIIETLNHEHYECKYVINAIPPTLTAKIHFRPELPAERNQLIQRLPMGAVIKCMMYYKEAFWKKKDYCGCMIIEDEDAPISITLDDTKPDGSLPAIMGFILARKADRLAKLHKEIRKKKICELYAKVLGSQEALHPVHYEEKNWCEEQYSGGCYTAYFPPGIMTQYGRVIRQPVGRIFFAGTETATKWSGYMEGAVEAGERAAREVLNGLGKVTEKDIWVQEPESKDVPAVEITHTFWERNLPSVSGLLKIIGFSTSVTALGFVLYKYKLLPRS
The data set can be described thus: MAO inhibition, kynuramine oxidation to 4-hydroxyquinoline. In kind it is biochemical. Here is the method: A total of 99 µL of substrate working solution was added into 1.1 mL incubation tubes and then 1 µL of the test compound/control working solution or DMSO (vehicle control) was added, mixed well, and pre-incubated at 37 °C for 5 min. MAO-A (0.005 mg/mL) and MAO-B (0.02 mg/mL) were pre-incubated in the working solution at 37 °C for 5 min. A total of 100 µL of pre-incubated MAO-A or MAO-B working solution was added to incubation tubes to start the reaction, mixed well, and incubated at 37 °C for 15 min. […] All samples were centrifuged at 4000 rpm at 4 °C for 15 min, then 100 µL supernatant with 100 µL of water was transferred for LC-MS/MS analysis.
as §1
The oxidation of kynuramine to 4-hydroxyquinoline generated was the in vitro marker reaction of MAO-A and MAO-B enzymes.

Experimental for CYP2D6: (§2) Incubation without 30 min pre-incubation, 178.5 µL of liver microsomes working was pre-incubated in a 37 °C water bath for 30 min. After the pre-incubation, 1.5 μL of test compound or control compound working solution, 60 μL of substrate working solution, and 60 μL of NADPH working solution were added; then, the reaction mixture was mixed by pipetting up and down and then incubated at 37 °C for 10 min. Incubation with 30 min pre-incubation. Next, 1.5 μL of test compound or control compound working solutions and 60 μL of NADPH working solution were added into 178.5 μL of liver microsome working solution, then the reaction mixture was mixed by pipetting up and down and then pre-incubated at 37 °C for 30 min. […]
(§3) For competitive and time-dependent CYP inhibition, the peak area ratios (PAR) of analyte/internal standard were used to semi-quantitatively determine the concentration of acetaminophen (CYP1A2 activity), 4’-hydroxydiclofenac (CYP2C9), 4’-hydroxymephenytoin (CYP2C19), dextrorphan (CYP2D6), 1’-hydroxymidazolam (CYP3A4), 6β-hydroxytestosterone (CYP3A4), hydroxybupropion (CYP2B6), and N-desethylamodiaquine (CYP2C8), with terfenadine as the internal standard by LC-MS/MS method. The HPLC-MS system utilized an Acquity UPLC system and Sciex API 4000 mass spectrometer in ESI positive mode, with quantitation employing MRM. […]
Experimental for CYP3A4/5: as §2, §3
Experimental for in vitro: The experiment was performed using equilibrium dialysis with the two compartments separated by a semi-permeable membrane. Phosphate-buffered saline (PBS) (pH 7.4) was added to one side of the membrane and the plasma solution to the other side. After equilibration (5 h at 37 °C), samples were taken from both sides of the membrane, transferred to a new plate, and were matrix-matched by the addition of an appropriate amount of PBS to the plasma samples and blank plasma to the PBS samples. […] Incubations were performed in duplicate. Warfarin served as a control. The fraction unbound in plasma (fu,p) = Cb/Cp, where Cb represents the concentration in buffer and Cp the concentration in plasma at 5 h.

In the case of `OC[C@H]1O[C@@H](OCCc2ccc(O)cc2)[C@H](O)[C@@H](O)[C@@H]1O` [Salidroside], the “IC50 Shift” value in the data set on CYP3A4/5 is given as “no shift”. Further, the IC50 was over 50 µM at CYP2D6, over 100 µM against OATP1B1 and over 50 µM at recombinant human MAO-A. Also, the fraction unbound at 5 h, 5 µM in the data set “in vitro” turned out to be 0.856. In addition, in data set [1], the “no observed adverse effect level (NOAEL)” value was at least 2000 mg/kg/day. Also, on OATP1B1 (human), the activity at 2 min, 100 µM amounted to 84.4%. In addition, the inhibition at 2 min, 100 µM against OATP1B1 (human) is 15.5%. At OATP1B1 (up to concentrations of 33.3 mM, 33.3 µM), the “mean % of control activity / inhibition of OATP1B1” value was “unchanged; also recorded: no inhibition”. Further, the “inhibition of MAO-A” value with MAO-A is “inactive”. Besides, at recombinant human MAO-A (at 50 µM, read-out: maximum % inhibition of MAO-A), the inhibition at 50 µM stood at 13.3%.
